How the values were obtained:
Format in all cases: in vivo
[1] = tested on: giant foxtail (Setaria faberii); assay: Test A pre-/postemergence plant response
In short: (§1)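 Injury was scored visually after roughly ten days against untreated controls, 0 = no effect, 100 = complete control. Test chemicals in a surfactant-containing non-phytotoxic solvent were sprayed either onto soil preemergence or onto one- to two-leaf, 2–10 cm plants postemergence.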

[2] = tested on: morningglory (Ipomoea spp.); assay: Test A pre-/postemergence plant response
In short: as §1

[3] = tested on: velvetleaf (Abutilon theophrasti); assay: Test A pre-/postemergence plant response
In short: as §1

[4] = tested on: wheat (Triticum aestivum); assay: Test A pre-/postemergence plant response
In short: as §1

[5] = tested on: barnyardgrass (Echinochloa crus-galli); assay: Test A pre-/postemergence plant response
In short: as §1

corn (Zea mays) = assay: Test A pre-/postemergence plant response
In short: as §1

[6] = tested on: pigweed (Amaranthus retroflexus); assay: Test A pre-/postemergence plant response
In short: as §1

[7] = tested on: large crabgrass (Digitaria sanguinalis); assay: Test A pre-/postemergence plant response
In short: as §1

[8] = tested on: winter barley (Hordeum vulgare); assay: Test B postemergence plant response; conditions: Postemergence; for Barley plant response rating: 250 g ai/ha, scale 0 to 100
In short: (§2)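 Plants at the 1- to 4-leaf stage (2 to 18 cm tall), grown in pots of peat moss/vermiculite medium with wetting agent and starter nutrients, received postemergence applications of test chemicals. After 13 to 15 days in a greenhouse, injury was rated visually against untreated controls on a 0 (no effect) to 100 (complete control) scale.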

[9] = tested on: chickweed (Stellaria media); assay: Test B postemergence plant response; conditions: Postemergence; for Chickweed plant response rating: 250 g ai/ha, scale 0 to 100
In short: as §2

[10] = tested on: windgrass (Apera spica-venti); assay: Test B postemergence plant response; conditions: Postemergence, scale 0 (no effect) to 100 (complete control)
In short: as §2

[11] = tested on: canarygrass (Phalaris minor); assay: Test B postemergence plant response; conditions: Postemergence; for Canarygrass plant response rating: 250 g ai/ha, scale 0 to 100
In short: as §2

[12] = Postemergence, 125 g ai/ha, visual injury, 0 to 100 scale (0 no effect, 100 complete control), approx. ten days
[13] = Postemergence, 500 g ai/ha, 0 to 100 scale, 0 = no effect, 100 = complete control, approx. ten days
[14] = Preemergence, 125 g ai/ha, 0 to 100 scale, 0 = no effect, 100 = complete control
[15] = Preemergence, 500 g ai/ha, visual injury, 0 to 100 scale (0 no effect, 100 complete control), approx. ten days
[16] = 31 g ai/ha, scale 0 to 100 (0 no effect, 100 complete control)
[17] = 62 g ai/ha, scale 0 (no effect) to 100 (complete control), 13 to 15 days
[18] = 125 g ai/ha, visual rating after 13 to 15 days, scale 0 (no effect) to 100 (complete control)
[19] = 125 g ai/ha, visual rating after 13 to 15 days

Compound: Cc1cc(C)cc(-n2c(-c3ccccc3)ncc(C(=O)C3=C(O)CCCC3=O)c2=O)c1 [Compound 33]
- Foxtail, Giant plant response rating [1, 12]: 60
- Plant response rating, Foxtail, Giant [1, 13]: 100
- Plant response rating, Foxtail, Giant [1, 14]: 30
- Plant response rating, Foxtail, Giant [1, 15]: 90
- Morningglory plant response rating [2, 12]: 80
- Plant response rating, Morningglory [2, 13]: 90
- Plant response rating, Morningglory [2, 14]: 0
- Plant response rating, Morningglory [2, 15]: 50
- Velvetleaf plant response rating [3, 12]: 100
- Plant response rating, Velvetleaf [3, 13]: 100
- Plant response rating, Velvetleaf [3, 14]: 50
- Plant response rating, Velvetleaf [3, 15]: 80
- Wheat plant response rating [4, 12]: 0
- Plant response rating, Wheat [4, 13]: 20
- Plant response rating, Wheat [4, 14]: 0
- Plant response rating, Wheat [4, 15]: 10
- Barnyardgrass plant response rating [5, 12]: 80
- Plant response rating, Barnyardgrass [5, 13]: 100
- Plant response rating, Barnyardgrass [5, 14]: 10
- Plant response rating, Barnyardgrass [5, 15]: 90
- Corn plant response rating (corn (Zea mays); [12]): 0
- Plant response rating, Corn (corn (Zea mays); [13]): 20
- Plant response rating, Corn (corn (Zea mays); [14]): 0
- Plant response rating, Corn (corn (Zea mays); [15]): 30
- Pigweed plant response rating [6, 12]: 90
- Plant response rating, Pigweed [6, 13]: 100
- Plant response rating, Pigweed [6, 14]: 80
- Plant response rating, Pigweed [6, 15]: 90
- Crabgrass, Large plant response rating [7, 12]: 70
- Plant response rating, Crabgrass, Large [7, 13]: 100
- Plant response rating, Crabgrass, Large [7, 14]: 80
- Plant response rating, Crabgrass, Large [7, 15]: 100
- Plant response rating, Barley [8, 16]: 0
- Plant response rating, Barley [8, 17]: 0
- Plant response rating, Barley [8, 18]: 0
- Barley plant response rating [8]: 0
- Plant response rating, Chickweed [9, 16]: 80
- Plant response rating, Chickweed [9, 17]: 98
- Plant response rating, Chickweed [9, 18]: 100
- Chickweed plant response rating [9]: 100
- Plant response rating, Windgrass ([10]; 62 g ai/ha, 13 to 15 days): 25
- Plant response rating, Windgrass [10, 19]: 30
- Plant response rating, Canarygrass [11, 16]: 0
- Plant response rating, Canarygrass [11, 17]: 0
- Plant response rating, Canarygrass [11, 18]: 5
- Canarygrass plant response rating [11]: 5

Compound: Cc1ccccc1-n1c(-c2cccc(Cl)c2)ncc(C(=O)C2=C(O)CCCC2=O)c1=O [Compound 36]
- Foxtail, Giant plant response rating [1, 12]: 80
- Plant response rating, Foxtail, Giant [1, 13]: 100
- Plant response rating, Foxtail, Giant [1, 14]: 10
- Plant response rating, Foxtail, Giant [1, 15]: 60
- Morningglory plant response rating [2, 12]: 50
- Plant response rating, Morningglory [2, 13]: 100
- Plant response rating, Morningglory [2, 14]: 0
- Plant response rating, Morningglory [2, 15]: 30
- Velvetleaf plant response rating [3, 12]: 100
- Plant response rating, Velvetleaf [3, 13]: 100
- Plant response rating, Velvetleaf [3, 14]: 60
- Plant response rating, Velvetleaf [3, 15]: 100
- Wheat plant response rating [4, 12]: 0
- Plant response rating, Wheat [4, 13]: 0
- Plant response rating, Wheat [4, 14]: 0
- Plant response rating, Wheat [4, 15]: 20
- Barnyardgrass plant response rating [5, 12]: 90
- Plant response rating, Barnyardgrass [5, 13]: 100
- Plant response rating, Barnyardgrass [5, 14]: 10
- Plant response rating, Barnyardgrass [5, 15]: 50
- Corn plant response rating (corn (Zea mays); [12]): 0
- Plant response rating, Corn (corn (Zea mays); [13]): 60
- Plant response rating, Corn (corn (Zea mays); [14]): 0
- Plant response rating, Corn (corn (Zea mays); [15]): 0
- Pigweed plant response rating [6, 12]: 90
- Plant response rating, Pigweed [6, 13]: 100
- Plant response rating, Pigweed [6, 14]: 0
- Plant response rating, Pigweed [6, 15]: 80
- Crabgrass, Large plant response rating [7, 12]: 80
- Plant response rating, Crabgrass, Large [7, 13]: 100
- Plant response rating, Crabgrass, Large [7, 14]: 10
- Plant response rating, Crabgrass, Large [7, 15]: 80
- Plant response rating, Barley [8, 16]: 5
- Plant response rating, Barley [8, 17]: 10
- Plant response rating, Barley [8, 18]: 20
- Plant response rating, Chickweed [9, 16]: 85
- Plant response rating, Chickweed [9, 17]: 98
- Plant response rating, Chickweed [9, 18]: 100
- Chickweed plant response rating [9]: 100
- Plant response rating, Windgrass ([10]; 62 g ai/ha, 13 to 15 days): 70
- Plant response rating, Windgrass [10, 19]: 80
- Plant response rating, Canarygrass [11, 16]: 40
- Plant response rating, Canarygrass [11, 17]: 45
- Plant response rating, Canarygrass [11, 18]: 50
- Canarygrass plant response rating [11]: 50

Compound: O=C1CCCC(O)=C1C(=O)c1cnc(-c2ccccc2)n(-c2cccc(Br)c2)c1=O [Compound 38]
- Foxtail, Giant plant response rating [1, 12]: 50
- Plant response rating, Foxtail, Giant [1, 13]: 90
- Plant response rating, Foxtail, Giant [1, 14]: 10
- Plant response rating, Foxtail, Giant [1, 15]: 80
- Morningglory plant response rating [2, 12]: 100
- Plant response rating, Morningglory [2, 13]: 100
- Plant response rating, Morningglory [2, 14]: 0
- Plant response rating, Morningglory [2, 15]: 70
- Velvetleaf plant response rating [3, 12]: 100
- Plant response rating, Velvetleaf [3, 13]: 100
- Plant response rating, Velvetleaf [3, 14]: 70
- Plant response rating, Velvetleaf [3, 15]: 100
- Wheat plant response rating [4, 12]: 0
- Plant response rating, Wheat [4, 13]: 40
- Plant response rating, Wheat [4, 14]: 0
- Plant response rating, Wheat [4, 15]: 20
- Barnyardgrass plant response rating [5, 12]: 60
- Plant response rating, Barnyardgrass [5, 13]: 90
- Plant response rating, Barnyardgrass [5, 14]: 10
- Plant response rating, Barnyardgrass [5, 15]: 90
- Corn plant response rating (corn (Zea mays); [12]): 0
- Plant response rating, Corn (corn (Zea mays); [13]): 60
- Plant response rating, Corn (corn (Zea mays); [14]): 0
- Plant response rating, Corn (corn (Zea mays); [15]): 30
- Pigweed plant response rating [6, 12]: 100
- Plant response rating, Pigweed [6, 13]: 100
- Plant response rating, Pigweed [6, 14]: 50
- Plant response rating, Pigweed [6, 15]: 100
- Crabgrass, Large plant response rating [7, 12]: 60
- Plant response rating, Crabgrass, Large [7, 13]: 100
- Plant response rating, Crabgrass, Large [7, 14]: 30
- Plant response rating, Crabgrass, Large [7, 15]: 100
- Plant response rating, Barley [8, 16]: 0
- Plant response rating, Barley [8, 17]: 0
- Plant response rating, Barley [8, 18]: 0
- Barley plant response rating [8]: 35
- Plant response rating, Chickweed [9, 16]: 85
- Plant response rating, Chickweed [9, 17]: 90
- Plant response rating, Chickweed [9, 18]: 100
- Chickweed plant response rating [9]: 100
- Plant response rating, Windgrass ([10]; 62 g ai/ha, 13 to 15 days): 80
- Plant response rating, Windgrass [10, 19]: 85
- Plant response rating, Canarygrass [11, 16]: 10
- Plant response rating, Canarygrass [11, 17]: 10
- Plant response rating, Canarygrass [11, 18]: 10
- Canarygrass plant response rating [11]: 45

Compound: Cc1c(Cl)cccc1-n1c(-c2ccccc2)ncc(C(=O)C2=C(O)CCCC2=O)c1=O [Compound 40]
- Foxtail, Giant plant response rating [1, 12]: 90
- Plant response rating, Foxtail, Giant [1, 13]: 100
- Plant response rating, Foxtail, Giant [1, 14]: 50
- Plant response rating, Foxtail, Giant [1, 15]: 90
- Morningglory plant response rating [2, 12]: 50
- Plant response rating, Morningglory [2, 13]: 100
- Plant response rating, Morningglory [2, 14]: 10
- Plant response rating, Morningglory [2, 15]: 80
- Velvetleaf plant response rating [3, 12]: 100
- Plant response rating, Velvetleaf [3, 13]: 100
- Plant response rating, Velvetleaf [3, 14]: 70
- Plant response rating, Velvetleaf [3, 15]: 100
- Wheat plant response rating [4, 12]: 0
- Plant response rating, Wheat [4, 13]: 0
- Plant response rating, Wheat [4, 14]: 0
- Plant response rating, Wheat [4, 15]: 0
- Barnyardgrass plant response rating [5, 12]: 90
- Plant response rating, Barnyardgrass [5, 13]: 90
- Plant response rating, Barnyardgrass [5, 14]: 10
- Plant response rating, Barnyardgrass [5, 15]: 100
- Corn plant response rating (corn (Zea mays); [12]): 0
- Plant response rating, Corn (corn (Zea mays); [13]): 50
- Plant response rating, Corn (corn (Zea mays); [14]): 0
- Plant response rating, Corn (corn (Zea mays); [15]): 0
- Pigweed plant response rating [6, 12]: 100
- Plant response rating, Pigweed [6, 13]: 100
- Plant response rating, Pigweed [6, 14]: 70
- Plant response rating, Pigweed [6, 15]: 90
- Crabgrass, Large plant response rating [7, 12]: 90
- Plant response rating, Crabgrass, Large [7, 13]: 100
- Plant response rating, Crabgrass, Large [7, 14]: 60
- Plant response rating, Crabgrass, Large [7, 15]: 100
- Plant response rating, Barley [8, 16]: 0
- Plant response rating, Barley [8, 17]: 0
- Plant response rating, Barley [8, 18]: 10
- Barley plant response rating [8]: 10
- Plant response rating, Chickweed [9, 16]: 100
- Plant response rating, Chickweed [9, 17]: 100
- Plant response rating, Chickweed [9, 18]: 100
- Chickweed plant response rating [9]: 100
- Plant response rating, Windgrass ([10]; 62 g ai/ha, 13 to 15 days): 70
- Plant response rating, Windgrass [10, 19]: 80
- Plant response rating, Canarygrass [11, 16]: 20
- Plant response rating, Canarygrass [11, 17]: 20
- Plant response rating, Canarygrass [11, 18]: 30
- Canarygrass plant response rating [11]: 35
